Measurements from ChEMBL document CHEMBL4840346, “Amakusamine from a Psammocinia sp. Sponge: Isolation, Synthesis, and SAR Study on the Inhibition of RANKL-Induced Formation of Multinuclear Osteoclasts” (J Nat Prod, 2021).
The source made the active and inactive calls. The calls are words filed in the database; no cut-off is given here.

Tests used:
RAW264.7 [1] = assay: Inhibition of RANKL-induced osteoclastogenesis in mouse RAW264.7 cells assessed as reduction in number of TRAP-positive multinuclear cells measured after 4 days by TRAP staining based assay; assay type: functional, cell-based
RAW264.7 [2] = assay: Cytotoxicity against mouse RAW264.7 cells at 50 uM by MTT assay; assay type: cell-based; settings: raw264.7, 50 µM
RAW264.7 [3] = assay: Inhibition of RANKL-induced osteoclastogenesis in mouse RAW264.7 cells assessed as reduction in NFATc1 mRNA expression measured after 24 hrs by RT-PCR analysis; assay type: functional, cell-based; settings: dose 30-50 µM
RAW264.7 [4] = assay: Cytotoxicity against mouse RAW264.7 cells at 25 uM by MTT assay; assay type: cell-based; settings: raw264.7, 25 µM
RAW264.7 [5] = assay: Inhibition of RANKL-induced osteoclastogenesis in mouse RAW264.7 cells assessed as reduction in number of TRAP-positive multinuclear cells at 50 uM measured after 4 days by TRAP staining based assay; assay type: functional; settings: for inhibition: time 4.0 day

Row | SMILES | IC50 (RAW264.7 [1]; Mus musculus, RAW264.7, 96 h) | Activity (RAW264.7 [2]) | further results
1 | Brc1c2c(c(Br)c3c1OCO3)NCC2 | 25.6 µM | Non-Toxic | –
2 | Brc1c2c(c(Br)c3[nH]ccc13)OCO2 | 10.5 µM | Non-Toxic | inhibition (RAW264.7 [3]): Dose-Dependent Effect; IC50 (RAW264.7 [1]; raw264.7): 9.4 µM; inhibition (RAW264.7 [1]; time 4.0 day): Dose-Dependent Effect
3 | Clc1c2c(c(Cl)c3[nH]ccc13)OCO2 | 40 µM | Non-Toxic | –
4 | CCCCCCCC(=O)n1ccc2c(Br)c3c(c(Br)c21)OCO3 | 11.1 µM | Non-Toxic | –
5 | OCc1c[nH]c2c(Br)c3c(c(Br)c12)OCO3 | 10 µM | Non-Toxic | –
6 | CC(=O)n1ccc2c(Br)c3c(c(Br)c21)OCO3 | 11.7 µM | Non-Toxic | –
7 | Cc1c[nH]c2c(Br)c3c(c(Br)c12)OCO3 | 8.1 µM | Non-Toxic | –
8 | NCCc1c[nH]c2c(Br)c3c(c(Br)c12)OCO3 | 5.9 µM | – | Activity (RAW264.7 [4]): Toxic
9 | Brc1c2c(cc3[nH]ccc13)OCO2 | 16.8 µM | Non-Toxic | –
10 | COc1c(OC)c(Br)c2[nH]ccc2c1Br | 6.3 µM | Non-Toxic | –
11 | O=C(c1ccccc1)n1ccc2c(Br)c3c(c(Br)c21)OCO3 | – | Non-Toxic | inhibition (RAW264.7 [5]): inactive
12 | Brc1c2c(cc3cc[nH]c13)OCO2 | 35.4 µM | Non-Toxic | –
13 | Brc1[nH]c2cc3c(cc2c1Br)OCO3 | – | Non-Toxic | inhibition at 50 µM (RAW264.7 [5]; RAW264.7, 96 h, time 4 day): 40%
14 | O=Cc1c[nH]c2c(Br)c3c(c(Br)c12)OCO3 | 13.9 µM | Non-Toxic | –
15 | CCCCCCCCCCCCCC(=O)n1ccc2c(Br)c3c(c(Br)c21)OCO3 | – | Non-Toxic | inhibition (RAW264.7 [5]): inactive
16 | CCCC(=O)n1ccc2c(Br)c3c(c(Br)c21)OCO3 | 7.9 µM | Non-Toxic | –
17 | c1cc2cc3c(cc2[nH]1)OCO3 | – | Non-Toxic | inhibition (RAW264.7 [5]): inactive
